The nature of series [1]: Aggregation behavior of compound in water at 3 uM by UV-vis absorption spectra analysis. Format: physicochemical. Conditions: buffer; call rule not given here.
A short description of series [2]: Selectivity ratio of IC50 for human MCF7 cells with low expression of alphaVbeta3 integrin to IC50 for human HT-29 cells with high expression of alphaVbeta3 integrin preincubated for 24 hrs followed by red light irradiation and measured after overnight incubation by MTT assay. In kind it is functional. In general terms: Formazan colour is commonly taken as a measure of viable cells.

Series [3] concerns MCF7. The series is described as follows: Photocytotoxicity against human MCF7 cells with low expression of alphaVbeta3 integrin assessed as decrease in cell viability preincubated for 24 hrs followed by red light irradiation and measured after overnight incubation by MTT assay. Format: functional, cell-based. Conditions: MCF7, light or radiation study.
Series [4] can be described thus: Photostability in DMF assessed as release of singlet oxygen at 4 uM preincubated with DPBF in dark followed by irradiation with red light by DPBF decay assay. In kind it is functional.
Series [5] is described as follows: Aggregation behavior of compound in RPMI 1640 medium with 0.05% cremophor EL at 3 uM by UV-vis absorption spectra analysis. Format: physicochemical.
The test system of series [6] is HT-29. The series can be described thus: Photocytotoxicity against human HT-29 cells with high expression of alphaVbeta3 integrin assessed as decrease in cell viability preincubated for 2 hrs followed by red light irradiation and measured after overnight incubation by MTT assay. Format: functional, cell-based. Conditions: HT-29, light or radiation study.
Series [7] relates to HT-29. The series is described as follows: Photocytotoxicity against human HT-29 cells with high expression of alphaVbeta3 integrin assessed as decrease in cell viability preincubated for 24 hrs followed by red light irradiation and measured after overnight incubation by MTT assay. Conditions: HT-29, light or radiation study. Format: functional, cell-based.
Series [8] has as its system MCF7. The series can be described thus: Photocytotoxicity against human MCF7 cells with low expression of alphaVbeta3 integrin assessed as decrease in cell viability preincubated for 2 hrs followed by red light irradiation and measured after overnight incubation by MTT assay. The conditions noted are these: MCF7, light or radiation study. In kind it is functional, cell-based.

Series [9] can be described thus: Aggregation behavior of compound in DMF at 1 to 6 uM by UV-vis absorption spectra analysis. Format: physicochemical.
Series [10] in a line: Selectivity ratio of IC50 for human MCF7 cells with low expression of alphaVbeta3 integrin to IC50 for human HT-29 cells with high expression of alphaVbeta3 integrin preincubated for 2 hrs followed by red light irradiation and measured after overnight incubation by MTT assay. In kind it is functional.
The nature of series [11]: Aggregation behavior of compound in DMF by UV-vis absorption spectra analysis. Format: physicochemical.

The structures appear in SMILES notation.

By IC50 is commonly meant the midpoint of a concentration-inhibition curve.

With `N=C(N)NCCC[C@@H]1NC(=O)[C@H](Cc2cn(CCOCCO[Si]3(OCCOCCO)n4c5c6ccccc6c4/N=C4N=C(/N=c6/c7ccccc7/c(n63)=N/C3=NC(=N\5)/c5ccccc53)c3ccccc3\4)nn2)NC(=O)[C@@H](Cc2ccccc2)NC(=O)[C@H](CC(=O)O)NC(=O)CNC1=O` (some centres undefined), the Activity result in series [1], in [5] and in series [9] was “Not Active” in each case. Besides, the “Ratio IC50” value is reported as 1.11 in series [2] and 1 in series [10]. Also, the IC50 in [3] was found to be 39 nM; in [6], 33 nM; in series [7], 35 nM; in series [8], 33 nM. The Stability entry in series [4] is “Unstable”.
In the case of `N=C(N)NCCC[C@@H]1NC(=O)[C@H](Cc2cn(CCOCCOCCO[Si]3(OCCOCCOCCO)n4c5c6ccccc6c4/N=C4N=C(/N=c6/c7ccccc7/c(n63)=N/C3=NC(=N\5)/c5ccccc53)c3ccccc3\4)nn2)NC(=O)[C@@H](Cc2ccccc2)NC(=O)[C@H](CC(=O)O)NC(=O)CNC1=O` (some centres undefined), the Activity result in series [1], in [5] and in [9] was “Not Active” throughout. The “Ratio IC50” value in series [2] amounted to 1; in [10] it was 1.22. Moreover, the IC50 in [3] came to 26 nM; in [6], 32 nM; in series [7], 26 nM; in series [8] it was 39 nM. Further, the Stability entry in series [4] is listed as “Unstable”.
Take `N=C(N)NCCC[C@@H]1NC(=O)[C@H](Cc2cn(CCOCCO[Si]3(OCCOCCn4cc(C[C@@H]5NC(=O)[C@@H](Cc6ccccc6)NC(=O)[C@H](CC(=O)O)NC(=O)CNC(=O)[C@H](CCCNC(=N)N)NC5=O)nn4)n4c5c6ccccc6c4/N=C4N=C(/N=c6/c7ccccc7/c(n63)=N/C3=NC(=N\5)/c5ccccc53)c3ccccc3\4)nn2)NC(=O)[C@@H](Cc2ccccc2)NC(=O)[C@H](CC(=O)O)NC(=O)CNC1=O` (some centres undefined): the Activity result in series [1], in series [5] and in series [9] was “Not Active” in each case. The “Ratio IC50” value amounted to 1.64 in series [2] and 1.73 in series [10]. Also, the IC50 stood at 23 nM in series [3], 22 nM in series [6], 14 nM in series [7] and 38 nM in series [8]. Further, the Stability entry in series [4] was “Unstable”.
Consider `[N-]=[N+]=NCCOCCOCCO[Si]1(OCCOCCOCCO)n2c3c4ccccc4c2/N=C2N=C(/N=c4/c5ccccc5/c(n41)=N/C1=NC(=N\3)/c3ccccc31)c1ccccc1\2` (centres undefined), for which the “Ratio IC50” value is 0.76 in series [2] and 0.83 in series [10]. The IC50 stood at 1.3 nM in [3], 3 nM in series [6], 1.7 nM in series [7] and 2.5 nM in [8]. Further, the Stability entry in series [4] was “Unstable”. For the same molecule, the Activity result in series [11] is given as “Not Active”.
`[N-]=[N+]=NCCOCCOCCO[Si]1(OCCOCCOCCN=[N+]=[N-])n2c3c4ccccc4c2/N=C2N=C(/N=c4/c5ccccc5/c(n41)=N/C1=NC(=N\3)/c3ccccc31)c1ccccc1\2` (centres undefined): the “Ratio IC50” value is on record as 1.39 in series [2] and 1.4 in [10]. In addition, the IC50 in series [3] is 11 nM; in [6], 8.6 nM; in [7] it was 7.9 nM; in series [8], 12 nM. Further, the Stability result in series [4] is listed as “Unstable”. For the same molecule, the Activity result in series [11] is given as “Not Active”.
Take `OCCOCCO[Si]1(OCCOCCO)n2c3c4ccccc4c2/N=C2N=C(/N=c4/c5ccccc5/c(n41)=N/C1=NC(=N\3)/c3ccccc31)c1ccccc1\2`: the “Ratio IC50” value worked out at 1.13 in series [2] and 0.83 in [10]. For the same molecule, the IC50 came to 0.9 nM in series [3], 1.2 nM in series [6], 0.8 nM in series [7] and 1 nM in series [8]. The Stability entry in series [4] is “Unstable”. The Activity result in [11] is recorded as “Not Active”.
As for `[N-]=[N+]=NCCOCCOCCOCCO[Si]1(OCCOCCOCCOCCN=[N+]=[N-])n2c3c4ccccc4c2/N=C2N=C(/N=c4/c5ccccc5/c(n41)=N/C1=NC(=N\3)/c3ccccc31)c1ccccc1\2` (centres undefined), the “Ratio IC50” value in series [2] and in series [10] was 1.03 in each case. Also, the IC50 in series [3] stood at 4 nM; in series [6] it was 6.3 nM; in [7], 3.9 nM; in series [8], 6.5 nM. For the same molecule, the Stability result in series [4] is “Unstable”. Further, in series [11], the Activity result is “Not Active”.
On to `[N-]=[N+]=NCCOCCO[Si]1(OCCOCCO)n2c3c4ccccc4c2/N=C2N=C(/N=c4/c5ccccc5/c(n41)=N/C1=NC(=N\3)/c3ccccc31)c1ccccc1\2` (centres undefined), for which the “Ratio IC50” value in series [2] turned out to be 1.18; in series [10] it was 1.15. For the same molecule, the IC50 in series [3] came out at 2.6 nM; in series [6], 3.2 nM; in series [7], 2.2 nM; in [8] it was 3.7 nM. The Stability entry in series [4] is reported as “Unstable”. Besides, in series [11], the Activity result is reported as “Not Active”.
As to `OCCOCCOCCOCCO[Si]1(OCCOCCOCCOCCO)n2c3c4ccccc4c2/N=C2N=C(/N=c4/c5ccccc5/c(n41)=N/C1=NC(=N\3)/c3ccccc31)c1ccccc1\2`, the “Ratio IC50” value in series [2] and in series [10] was 1 throughout. Further, the IC50 in series [3], in [6], in [7] and in series [8] was 0.2 nM each time. Further, the Stability entry in [4] is recorded as “Unstable”. Further, the Activity entry in series [11] was “Not Active”.
As to `N=C(N)NCCC[C@@H]1NC(=O)[C@H](Cc2cn(CCOCCOCCOCCO[Si]3(OCCOCCOCCOCCO)n4c5c6ccccc6c4/N=C4N=C(/N=c6/c7ccccc7/c(n63)=N/C3=NC(=N\5)/c5ccccc53)c3ccccc3\4)nn2)NC(=O)[C@@H](Cc2ccccc2)NC(=O)[C@H](CC(=O)O)NC(=O)CNC1=O` (some centres undefined), the Activity result in [1], in series [5] and in series [9] was “Not Active” in each case. In addition, the “Ratio IC50” value came out at 1.03 in series [2] and 1.09 in series [10]. For the same molecule, the IC50 worked out at 33 nM in [3], 32 nM in series [6], 32 nM in series [7] and 35 nM in [8]. Moreover, the Stability entry in [4] is listed as “Unstable”.
On to `[N-]=[N+]=NCCOCCO[Si]1(OCCOCCN=[N+]=[N-])n2c3c4ccccc4c2/N=C2N=C(/N=c4/c5ccccc5/c(n41)=N/C1=NC(=N\3)/c3ccccc31)c1ccccc1\2` (centres undefined), for which the “Ratio IC50” value in [2] is given as 0.62; in [10], 1. Besides, the IC50 was found to be 4.4 nM in series [3], 12 nM in [6], 7.1 nM in [7] and 12 nM in series [8]. Further, the Stability entry in [4] is listed as “Unstable”. Also, the outcome in series [11] was Active.
As to `[N-]=[N+]=NCCOCCOCCOCCO[Si]1(OCCOCCOCCOCCO)n2c3c4ccccc4c2/N=C2N=C(/N=c4/c5ccccc5/c(n41)=N/C1=NC(=N\3)/c3ccccc31)c1ccccc1\2` (centres undefined), the “Ratio IC50” value in series [2] was 1.21; in series [10], 1.04. The 50% inhibitory concentration (IC50) was 1.7 nM in series [3], 2.6 nM in [6], 1.4 nM in [7] and 2.7 nM in series [8]. For the same molecule, the Stability entry in [4] was “Unstable”. Besides, in series [11], the Activity entry is “Not Active”.
As for `N=C(N)NCCC[C@@H]1NC(=O)[C@H](Cc2cn(CCOCCOCCOCCO[Si]3(OCCOCCOCCOCCn4cc(C[C@@H]5NC(=O)[C@@H](Cc6ccccc6)NC(=O)[C@H](CC(=O)O)NC(=O)CNC(=O)[C@H](CCCNC(=N)N)NC5=O)nn4)n4c5c6ccccc6c4/N=C4N=C(/N=c6/c7ccccc7/c(n63)=N/C3=NC(=N\5)/c5ccccc53)c3ccccc3\4)nn2)NC(=O)[C@@H](Cc2ccccc2)NC(=O)[C@H](CC(=O)O)NC(=O)CNC1=O` (some centres undefined), the Activity entry in series [1], in series [5] and in [9] was “Not Active” in each case. Moreover, the entries for the “Ratio IC50” value in [2] and in series [10] were 2.46 and 1.68, respectively. Also, the IC50 amounted to 32 nM in [3], 19 nM in [6], 13 nM in series [7] and 32 nM in series [8]. The Stability entry in series [4] is “Unstable”.

(Values after ChEMBL document CHEMBL4152282, “Synthesis and photodynamic activities of integrin-targeting silicon(IV) phthalocyanine-cRGD conjugates” (Eur J Med Chem, 2018).)
